Reference: US20250189532A1, “1,6-DIYNE COMPOUND, ITS PREPARATION METHOD, AND PRODUCTS OBTAINED USING 1,6-DIYNE COMPOUND AS RAW MATERIAL AND THEIR APPLICATIONS” (Fujian Institute of Research on the Structure of Matter, …, priority 2022, published 2025)

Experiments:
Type in all cases: cell-based
respiratory chain [1] = assay: Cell silencing experiment 2: cytc-436 siRNA, live cell imaging with MP-1
Protocol: The cells are cultured in the imaging culture dish for 6 h, and then treated with cytc-436 (designed silent siRNA) or non-targeting RNA for a certain period of time, and then live cell imaging is performed under a confocal laser scanning microscope. After 6 hours of ctyc-436 treatment, Hoechst 33342 and MTG staining are good, but about 5% of the cells could not be labeled by MP-1. In contrast, the staining effect of MP-1 in the control group using non-targeting RNA is still good.

respiratory chain [2] = assay: Cell silencing experiment 1: cytc-290 siRNA, live cell imaging with MP-1
Protocol: Cells are cultured in imaging culture dishes for 6 h and then treated with cytc-290 (designed silent siRNA) or nontargeting RNA. After a certain period of action, live cell imaging is performed under a confocal laser scanning microscope. After 12 hours of ctyc-290 treatment, Hoechst 33342 and MTG staining are good, but about 10% of the cells could not be labeled by MP-1. About 30% of the cells could not be labeled by MP-1 after 18 hours of treatment with ctyc-290. As shown in FIGS. 8A-8E, in contrast, the staining effect of MP-1 in the control group using non-targeted RNA is still good.

[3] = test system: L929 cells (mouse fibroblasts); assay: Fluorescent labeling of L292/L929 cells by IM probes (confocal imaging); conditions: 30 minutes in the dark
Protocol: Cell line: L929 cells (mouse fibroblasts).
Cell culture: Cells are cultured in a CO2 incubator (37° C., 5% CO2) with DMEM medium (penicillin (100 U/mL) and streptomycin (100 μg/mL)).
(§1) Cell imaging experiment: Cells are cultured on 15 mm grade bottom cell culture dishes. Before labeling the cells with the probe, the culture medium is removed, and the cells are washed twice with Hank's buffer solution to remove the remaining culture medium. Then, 200 μL of probe IM-1 (10 μM) is added to the culture dish, and the cells are incubated in the dark for 30 minutes. The cells are washed twice with Hank's buffer solution to remove any remaining probe, and then 1 mL of Hank's solution is added to the culture dish. The cells are observed under a laser confocal microscope with a 100× objective. The excitation wavelength is 543 nm, and the emission wavelength is 550-600 nm.
as §1, with “IM-2 (5” for “IM-1 (10”
as §1, with “IM-3 (2” for “IM-1 (10”, “The cells are observed under a laser confocal microscope with a 100× objective. The excitation wavelength is 543 nm, and the emission wavelength is 550-600 nm.” left out

[4] = after 6 hours of cytc-436 treatment
[5] = after 12 hours of cytc-290 treatment

## CCOc1ccc(-c2nc3ccc(-c4nc5ccc(N6CCN(C)CC6)cc5[nH]4)cc3[nH]2)cc1 [Hoechst 33342, reference compound]
Respiratory chain [1]; [4]
  staining: good
Respiratory chain [2]; [5]
  staining: good

## c1ccc(C2=NCc3cc4ccccc4cc32)cc1 [IM-1]
[3]; probe 10 μM, excitation 543 nm, emission 550-600 nm
  organelles fluorescently labelled by the probe: labels the lysosomes and lysosomal autolysosomes in the cells

## CCCCCCCCCCCCCOc1ccc(C2=NCc3c2cc2ccc(Cl)cc2c3-c2ccccc2)cc1 [IM-2]
[3]; probe 5 μM, excitation 543 nm, emission 550-600 nm
  organelles fluorescently labelled by the probe: labels the lysosomes and lysosomal autolysosomes in the cells

## CCCCCCCCCCCCCOc1ccc(C2=NCc3c2cc2ccc(Cl)cc2c3-c2ccccc2)cc1 [IM-3]
[3]; probe 2 μM, excitation 488 nm, emission 600-650 nm
  organelles fluorescently labelled by the probe: labels the lysosomes and lysosomal autolysosomes in the cells

## C#CCN(C(C#Cc1ccccc1)c1ccccc1)S(=O)(=O)c1ccccc1 (stereo not shown) [PA-1]
Respiratory chain [1]; [4]
  cells that could not be labeled by MP-1: about 5%
Respiratory chain [1]; control group using non-targeting RNA
  staining effect in control group: still good
Respiratory chain [2]; [5]
  cells that could not be labeled by MP-1: about 10%
Respiratory chain [2]; after 18 hours of cytc-290 treatment
  cells that could not be labeled by MP-1: About 30%
Respiratory chain [2]; control group using non-targeted RNA
  staining effect in control group: still good
